One experiment concerns the target T1, H390A-LRH-1 (Homo sapiens, UniProt O00482, H390A).
T1 construct: expressed in transfected cells; host or cells: Hela cells
Also noted: method as in PMID 27694446. The note with it: cited from earlier work.

In experiment [1] the target is T2, Liver receptor homolog-1 (LRH-1) ligand binding domain (UniProt O00482 299-541).
T2 construct: also called LRH-1 LBD
Description: crystal structure; LRH-1 LBD (His-tag cleaved) saturated with SS-RJW100, combined with the Tif2 NR Box 3 peptide, 6 mg/ml; hanging drop vapor diffusion at 18 °C with microseeding; 0.05 M sodium acetate pH 4.6, 5–11% PEG4000. The note with it: both partners purified.

Consider 2 molecules from paper PMC7747700, “Enantiomer-specific activities of an LRH-1 and SF-1 dual agonist” (Scientific Reports, 2020).

T1 sequence (O00482 whole entry H390A): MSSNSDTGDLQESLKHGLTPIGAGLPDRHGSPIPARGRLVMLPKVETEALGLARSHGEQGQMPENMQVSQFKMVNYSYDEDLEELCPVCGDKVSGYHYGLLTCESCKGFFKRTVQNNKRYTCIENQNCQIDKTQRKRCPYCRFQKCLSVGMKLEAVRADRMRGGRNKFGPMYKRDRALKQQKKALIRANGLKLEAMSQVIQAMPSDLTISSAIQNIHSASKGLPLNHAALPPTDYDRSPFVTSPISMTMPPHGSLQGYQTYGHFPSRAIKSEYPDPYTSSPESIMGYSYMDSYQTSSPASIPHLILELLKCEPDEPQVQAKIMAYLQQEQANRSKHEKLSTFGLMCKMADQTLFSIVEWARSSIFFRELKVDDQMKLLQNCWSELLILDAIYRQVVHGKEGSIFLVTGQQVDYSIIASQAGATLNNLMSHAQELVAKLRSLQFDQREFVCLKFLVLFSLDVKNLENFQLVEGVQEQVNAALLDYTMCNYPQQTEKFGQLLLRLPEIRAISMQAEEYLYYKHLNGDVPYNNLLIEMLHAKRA
T2 sequence (O00482 299-541): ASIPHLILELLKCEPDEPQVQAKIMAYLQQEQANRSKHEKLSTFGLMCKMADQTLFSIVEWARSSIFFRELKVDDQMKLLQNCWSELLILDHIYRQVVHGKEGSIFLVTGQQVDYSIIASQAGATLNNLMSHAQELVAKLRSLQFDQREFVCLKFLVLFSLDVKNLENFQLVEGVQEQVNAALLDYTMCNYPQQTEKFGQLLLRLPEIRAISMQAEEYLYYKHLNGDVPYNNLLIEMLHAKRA

On to `CCC/C=C(\CCC)C1=C(c2ccccc2)[C@]2(Nc3ccccc3)CCC[C@@H]2C1` [GSK8470], for which, at H390A-LRH-1, the “activation of H390A-LRH-1” value was “cannot activate”.

B1: peptide corresponding to the NR Box 3 of the Tif2 coactivator (peptide)
peptide: KENALLRYLLDKDDT
notes: source: synthetic peptide (RS Synthesis)
For B1, the binding result in experiment [1] is “binds”.
